Results taken from ChEMBL document CHEMBL5579865, “Discovery of Broad-Spectrum Herpes Antiviral Oxazolidinone Amide Derivatives and Their Structure-Activity Relationships” (ACS Med Chem Lett, 2024).
Values after ≈ are worked out from the molar mass of the structure shown.

Experiments:
[1] = Inhibition of HCMV DNA polymerase extracted from baculovirus infected Sf21 cells using Heterodimeric nucleic acid as substrate preincubated with enzyme for 30 mins followed by substrate and dATP addition measured after 60 mins by biotinylated UTP incorporation based AlphaLISA assay; design: species or system Human betaherpesvirus 5
[2] = Inhibition of VZV DNA polymerase extracted from baculovirus infected Sf21 cells using Heterodimeric nucleic acid as substrate preincubated with enzyme for 30 mins followed by substrate and dATP addition measured after 60 mins by biotinylated UTP incorporation based AlphaLISA assay; design: species or system Human alphaherpesvirus 3
Human betaherpesvirus 5 [3] = assay: Antiviral activity against HCMV AD169 infected in human MRC5 cells assessed as reduction in viral replication incubated for 72 hrs in presence of 50 % serum by qRT-PCR analysis; format: functional, organism-based
Human alphaherpesvirus 3 [4] = assay: Antiviral activity against VZV Street infected in human MeWo cells assessed as reduction in viral replication incubated for 72 hrs by qRT-PCR analysis; format: functional, organism-based
Human alphaherpesvirus 1 = assay: Antiviral activity against HSV-1 F strain infected in African green monkey Vero cells assessed as reduction in viral replication incubated for 72 hrs by qRT-PCR analysis; format: functional, organism-based
Human alphaherpesvirus 2 = assay: Antiviral activity against HSV-2 G strain infected in African green monkey Vero cells assessed as reduction in viral replication incubated for 72 hrs by qRT-PCR analysis; format: functional, organism-based
Human betaherpesvirus 5 [5] = assay: Antiviral activity against HCMV AD169 infected in human MRC5 cells assessed as reduction in viral replication incubated for 72 hrs in presence of 10 % serum by qRT-PCR analysis; format: functional, organism-based; details: Human betaherpesvirus 5, AD169, MRC5, 72 h
Human alphaherpesvirus 3 [6] = assay: Antiviral activity against VZV Street infected in human MRC5 cells assessed as reduction in viral replication incubated for 72 hrs by qRT-PCR analysis; format: functional, organism-based; details: Human alphaherpesvirus 3, Street, MRC5, 72 h
[7] = Solubility in PBS at pH 7; format: physicochemical
[8] = Metabolic stability in human liver microsomes assessed as intrinsic clearance; format: ADME, Microsome; details: read-out: CLH
[9] = Human betaherpesvirus 5, AD169, MRC5, 72 h, read-out: EC50
[10] = Human alphaherpesvirus 3, Street, MeWo, 72 h, read-out: EC50
[11] = Human alphaherpesvirus 1, F strain, Vero, 72 h, read-out: EC50
[12] = Human alphaherpesvirus 2, G strain, Vero, 72 h, read-out: EC50

Which results are given for COc1cc(NC(=O)Cc2ccc(Cl)cc2)c(C)cc1C[C@H]1COC(=O)N1?
IC50 [1]: 10800 nM; IC50 [2]: 13900 nM; EC50 (Human betaherpesvirus 5 [3]): Not Active; EC50 (Human alphaherpesvirus 3 [4]): Not Active; EC50 (Human alphaherpesvirus 1): Not Active; EC50 (Human alphaherpesvirus 2): Not Active

For COc1cc(NC(=O)Cc2ccc(Cl)cc2)ncc1C[C@H]1COC(=O)N1, which IC50 [1] is on record?
Its IC50 is 15900 nM.

What about the IC50 [2] of the same compound?
The IC50 was 6290 nM.

What about the EC50 (Human betaherpesvirus 5 [5]) of the same compound?
The EC50 was 51200 nM.

What about the EC50 (Human alphaherpesvirus 1) of the same compound?
Its EC50 is “Not Active”.

And the EC50 (Human alphaherpesvirus 3 [6])?
Its EC50 is over 80200 nM.

And the EC50 (Human alphaherpesvirus 2)?
The EC50 was “Not Active”.

And the solubility [7]?
Its solubility is under 2 µM.

What does the source list for O=C(Cc1ccc(Cl)cc1)Nc1ccc(Cc2ccccc2)cc1?
IC50 [1]: > 133000 nM; IC50 [2]: 67000 nM

Which results are given for CS(=O)(=O)c1cccc(Cc2ccc(NC(=O)Cc3ccc(Cl)cc3)cc2)c1?
IC50 [1]: 13300 nM; IC50 [2]: 12500 nM

With O=C(Cc1ccc([N+](=O)[O-])cc1)Nc1ccc(C[C@H]2COC(=O)N2)cc1 as the compound, how does the IC50 [1] read?
Its IC50 is 176 nM.

What about the IC50 [2] of the same compound?
The IC50 was 79 nM.

And the EC50 (Human betaherpesvirus 5 [3]; [9])?
The EC50 was 720 nM.

And the EC50 (Human alphaherpesvirus 3 [4]; [10])?
The EC50 was 185 nM.

And the EC50 (Human alphaherpesvirus 1; [11])?
Its EC50 is 177 nM.

What about the EC50 (Human alphaherpesvirus 2; [12]) of the same compound?
The EC50 was 473 nM.

Which IC50 [1] does the source give for COc1cc(NC(=O)Cc2ccc(F)c(Cl)c2)ccc1C[C@H]1COC(=O)N1 here?
The IC50 was 357 nM.

And the IC50 [2]?
The IC50 was 236 nM.

What about the EC50 (Human betaherpesvirus 5 [3]; [9]) of the same compound?
Its EC50 is 7070 nM.

What about the EC50 (Human alphaherpesvirus 3 [4]; [10]) of the same compound?
Its EC50 is 441 nM.

What about the EC50 (Human alphaherpesvirus 1; [11]) of the same compound?
The EC50 was 2150 nM.

And the EC50 (Human alphaherpesvirus 2; [12])?
The EC50 was 5250 nM.

For COc1cc(NC(=O)Cc2ccc(Cl)c(F)c2)ccc1C[C@H]1COC(=O)N1, which IC50 [1] is on record?
The IC50 was 97 nM.

And the IC50 [2]?
Its IC50 is 36 nM.

What about the EC50 (Human betaherpesvirus 5 [3]; [9]) of the same compound?
The EC50 was 1940 nM.

What about the EC50 (Human alphaherpesvirus 3 [4]; [10]) of the same compound?
Its EC50 is 126 nM.

What about the EC50 (Human alphaherpesvirus 1; [11]) of the same compound?
Its EC50 is 299 nM.

And the EC50 (Human alphaherpesvirus 2; [12])?
Its EC50 is 647 nM.

What does the source list for O=C(Cc1ccc(Cl)cc1)Nc1ccc(CC2COC(=O)N2)cn1 (racemic)?
IC50 [1]: 4100 nM; IC50 [2]: 2110 nM; EC50 (Human betaherpesvirus 5 [3]; [9]): 61700 nM; EC50 (Human alphaherpesvirus 3 [4]; [10]): 4460 nM; EC50 (Human alphaherpesvirus 1; [11]): 13300 nM; EC50 (Human alphaherpesvirus 2; [12]): 11400 nM

What does the source list for O=C(Cc1ccc(Cl)cc1)Nc1ccc(C(=O)c2ccccc2)cc1?
IC50 [1]: 18000 nM; IC50 [2]: 24700 nM

Which results are given for Cc1nccn1Cc1ccc(NC(=O)Cc2ccc(Cl)cc2)cc1?
IC50 [1]: 55000 nM; IC50 [2]: 34800 nM

For O=C(Cc1ccc(Cl)cc1)Nc1cc(Cl)c(C[C@H]2COC(=O)N2)cn1, which IC50 [1] is on record?
The IC50 was 6310 nM.

What about the IC50 [2] of the same compound?
The IC50 was 2870 nM.

And the EC50 (Human betaherpesvirus 5 [3]; [9])?
Its EC50 is 99000 nM.

What about the EC50 (Human alphaherpesvirus 3 [4]) of the same compound?
The EC50 was “Not Active”.

And the EC50 (Human alphaherpesvirus 1; [11])?
The EC50 was 33700 nM.

And the EC50 (Human alphaherpesvirus 2; [12])?
The EC50 was 64500 nM.

What does the source list for COc1cc(NC(=O)Cc2ccc(C#N)cc2)ccc1C[C@H]1COC(=O)N1?
IC50 [1]: 52 nM; IC50 [2]: 15 nM; EC50 (Human betaherpesvirus 5 [3]; [9]): 186 nM; EC50 (Human alphaherpesvirus 3 [4]; [10]): 131 nM; EC50 (Human alphaherpesvirus 1; [11]): 297 nM; EC50 (Human alphaherpesvirus 2; [12]): 789 nM

Which IC50 [1] does the source give for COc1cc(NC(=O)Cc2c(F)cc(Cl)cc2F)ccc1C[C@H]1COC(=O)N1 here?
The IC50 was 69 nM.

And the IC50 [2]?
The IC50 was 46 nM.

And the EC50 (Human betaherpesvirus 5 [3]; [9])?
Its EC50 is 614 nM.

And the EC50 (Human alphaherpesvirus 3 [4]; [10])?
The EC50 was 182 nM.

And the EC50 (Human alphaherpesvirus 1; [11])?
Its EC50 is 564 nM.

What about the EC50 (Human alphaherpesvirus 2; [12]) of the same compound?
The EC50 was 874 nM.

And the solubility [7]?
The solubility was 7 µM (≈ 2.88 µg/mL).

With COc1nc(NC(=O)Cc2ccc(Cl)cc2)cnc1C[C@H]1COC(=O)N1 as the compound, how does the IC50 [1] read?
The IC50 was 24100 nM.

And the IC50 [2]?
The IC50 was 23800 nM.

What about the EC50 (Human betaherpesvirus 5 [5]) of the same compound?
The EC50 was over 80200 nM.

What about the EC50 (Human alphaherpesvirus 1) of the same compound?
Its EC50 is “Not Active”.

And the EC50 (Human alphaherpesvirus 3 [6])?
Its EC50 is over 80200 nM.

And the EC50 (Human alphaherpesvirus 2)?
The EC50 was “Not Active”.

Which IC50 [1] does the source give for CCOc1cc(NC(=O)Cc2ccc(Cl)cc2)ccc1C[C@H]1COC(=O)N1 here?
Its IC50 is 45 nM.

What about the IC50 [2] of the same compound?
The IC50 was 18 nM.

What about the EC50 (Human betaherpesvirus 5 [3]; [9]) of the same compound?
The EC50 was 1200 nM.

And the EC50 (Human alphaherpesvirus 3 [4]; [10])?
Its EC50 is 85 nM.

And the EC50 (Human alphaherpesvirus 1; [11])?
The EC50 was 97 nM.

And the EC50 (Human alphaherpesvirus 2; [12])?
The EC50 was 37 nM.

And the solubility [7]?
Its solubility is 76 µM (≈ 29.6 µg/mL).

What about the CLint scaled [8] of the same compound?
Its CLint scaled is 29 mL/min/kg.

With O=C(Cc1ccc(Cl)cc1)Nc1ccc(Cn2cncn2)cc1 as the compound, how does the IC50 [1] read?
The IC50 was 12100 nM.

And the IC50 [2]?
Its IC50 is 4500 nM.

For O=C(Nc1ccc(Cl)cc1)Nc1ccc(C[C@H]2COC(=O)N2)cc1, which IC50 [1] is on record?
Its IC50 is 480 nM.

And the IC50 [2]?
The IC50 was 210 nM.

And the EC50 (Human betaherpesvirus 5 [5])?
Its EC50 is 1110 nM.

And the EC50 (Human alphaherpesvirus 3 [4])?
The EC50 was “Not Active”.

What about the EC50 (Human alphaherpesvirus 1) of the same compound?
Its EC50 is “Not Active”.

And the EC50 (Human alphaherpesvirus 2)?
The EC50 was “Not Active”.

For O=C1NC(Cc2ccc(C(=O)NCc3ccc(Cl)cc3)cc2)CO1 (stereo not drawn), which IC50 [1] is on record?
The IC50 was 116000 nM.

What about the IC50 [2] of the same compound?
The IC50 was 26000 nM.

What about the EC50 (Human betaherpesvirus 5 [3]) of the same compound?
Its EC50 is “Not Active”.

What about the EC50 (Human alphaherpesvirus 3 [4]) of the same compound?
Its EC50 is “Not Active”.

And the EC50 (Human alphaherpesvirus 1)?
The EC50 was “Not Active”.

And the EC50 (Human alphaherpesvirus 2)?
Its EC50 is “Not Active”.

With N#CCc1ccc(NC(=O)Cc2ccc(Cl)cc2)cc1 as the compound, how does the IC50 [1] read?
The IC50 was 50800 nM.

What about the IC50 [2] of the same compound?
The IC50 was 40900 nM.

With O=C(Cc1ccc(Cl)cc1)Nc1ccc(CC(F)(F)F)cc1 as the compound, how does the IC50 [1] read?
Its IC50 is 133000 nM.

And the IC50 [2]?
The IC50 was 77900 nM.

Which results are given for O=C1CC(c2ccc(NC(=O)Cc3ccc(Cl)cc3)cc2)CN1 (racemic)?
IC50 [1]: 23300 nM; IC50 [2]: 8200 nM
